# Results taken from US7598384B2, “Tetrahydroquinolinones and their use as antagonists of metabotropic glutamate receptors” (Merz Pharma GmbH & Co. KGAA, priority 2004, dated 2009).
# Where a name gives a salt, the structure may show the parent alone.
row,melting point [°C],SMILES
1,157 to 158,CC(C)COc1ccc2c(n1)CC(C)(C)CC2=O.Cl
2,87 to 88,CC1(C)CC(=O)c2ccc(OCc3ccccc3)nc2C1.Cl
3,215 to 216,CC1(C)CC(=O)c2ccc(NCc3ccccc3)nc2C1.Cl
4,173 to 175,CC1(C)CC(=O)c2ccc(CCc3ccccc3)nc2C1.Cl
5,202 to 204,CC1(C)CC(=O)c2ccc(Cc3ccccc3)nc2C1.Cl
6,163 to 164,CC1(C)CC(=O)c2cc(C#N)c(NCc3ccccc3)nc2C1.Cl
7,126 to 127,CC1(C)CC(=O)c2ccc(OC3CCCCC3)nc2C1.Cl
8,50 to 52,"CCCCSc1nc2c(cc1C#N)C(=O)CC(C)(C)C2 [Example 1, 2-Butylsulfanyl-7,7-dimethyl-5-oxo-5,6,7,8-tetrahydroquinoline-3-carbonitrile]"
9,100 to 102,"CCCSc1nc2c(cc1C#N)C(=O)CC(C)(C)C2 [Example 2, 7,7-Dimethyl-5-oxo-2-propylsulfanyl-5,6,7,8-tetrahydroquinoline-3-carbonitrile]"
10,135 to 136,"CC(C)Sc1nc2c(cc1C#N)C(=O)CC(C)(C)C2 [Example 3, 2-Isopropylsulfanyl-7,7-dimethyl-5-oxo-5,6,7,8-tetrahydroquinoline-3-carbonitrile]"
11,78 to 79,"C=C(C)CSc1nc2c(cc1C#N)C(=O)CC(C)(C)C2 [Example 4, 7,7-Dimethyl-2-(2-methylallysulfanyl)-5-oxo-5,6,7,8-tetrahydroquinoline-3-carbonitrile]"
12,75 to 76,"CC(C)CSc1nc2c(cc1C#N)C(=O)CC(C)(C)C2 [Example 5, 2-Isobutylsulfanyl-7,7-dimethyl-5-oxo-5,6,7,8-tetrahydroquinoline-3-carbonitrile]"
13,85 to 86,"C=C(C)CSc1nc2c(cc1C#N)C(=O)CCC2 [Example 6, 2-(2-Methylallylsulfanyl)-5-oxo-5,6,7,8-tetrahydroquinoline-3-carbonitrile]"
14,99 to 100,"CC1(C)CC(=O)c2cc(C#N)c(N3CCCCC3)nc2C1 [Example 7, 7,7-Dimethyl-5-oxo-2-piperidin-1-yl-5,6,7,8-tetrahydro-quinoline-3-carbonitrile]"
15,149 to 150,"COc1ccc(Nc2ccc3c(n2)CC(C)(C)CC3=O)cc1 [Example 86, 2-(4-Methoxy-phenylamino)-7,7-dimethyl-7,8-dihydro-6H-quinolin-5-one]"

# The next lines start with the compound.
row,SMILES,melting point [°C]
1,Cl.O=C1CCCc2nc(Cc3ccccc3)ccc21,185 to 187
2,COc1ccccc1CCc1ccc2c(n1)CCCC2=O.Cl,160 to 162
3,Cl.O=C1CCCc2nc(C34CC5CC(CC(C5)C3)C4)ccc21,214 to 216
4,CC1(C)CC(=O)c2ccc(C34CC5CC(CC(C5)C3)C4)nc2C1.Cl,210 to 212
5,"O=C1CC2(CCCCC2)Cc2nc(OCc3ccccc3)ccc21 (as salt: hydrochloride) [Example 25, 2-Benzyloxy-7,7-pentamethylene-7,8-dihydro-6H-quinoline-5-one hydrochloride]",276 to 277
6,"O=C1CC2(CCCCC2)Cc2nc(C34CC5CC(CC(C5)C3)C4)ccc21 (as salt: hydrochloride) [Example 27, 2-Adamantan-1-yl-7,7-pentamethylene-7,8-dihydro-6H-quinoline-5-one hydrochloride]",221 to 222
7,"CCCCCCc1ccc2c(n1)CC(c1ccc(N(C)C)cc1)CC2=O (stereo not drawn) (as salt: hydrochloride) [Example 32, 7-(4-Dimethylamino-phenyl)-2-hexyl-7,8-dihydro-6H-quinolin-5-one dihydrochloride]",195 to 196
8,"CC1(C)CCc2nc(C34CC5CC(CC(C5)C3)C4)ccc2C1=O (as salt: hydrochloride) [Example 41, 2-Adamantan-1-yl-6,6-dimethyl-7,8-dihydro-6H-quinolin-5-one hydrochloride]",203 to 204
9,"CCCCCCc1ccc2c(n1)C(C)CC(C)(C)C2=O (stereo not drawn) (as salt: hydrochloride) [Example 55, 2-Hexyl-6,6,8-trimethyl-7,8-dihydro-6H-quinolin-5-one hydrochloride]",199 to 200
10,"COc1cccc(-c2ccc3c(n2)CC2(CCCC2)CC3=O)c1 (as salt: hydrochloride) [Example 59, 2-(3-Methoxy-phenyl)-7,7-tetramethylene-7,8-dihydro-6H-quinolin-5-one hydrochloride]",233 to 234
11,"CCCC1CCc2nc(-c3ccc(OC)cc3)ccc2C1=O (stereo not drawn) (as salt: hydrochloride) [Example 60, 2-(4-Methoxy-phenyl)-6-propyl-7,8-dihydro-6H-quinolin-5-one hydrochloride]",212 to 213
12,"CCC1CC(=O)c2ccc(-c3ccc(OC)cc3)nc2C1 (stereo not drawn) (as salt: hydrochloride) [Example 70, 7-Ethyl-2-(4-methoxy-phenyl)-7,8-dihydro-6H-quinolin-5-one hydrochloride]",232 to 233
13,"O=C1c2ccc(Nc3ccccc3)nc2CC2CCCCC12 (stereo not drawn) [Example 111, 2-Phenylamino-6,7,8,9,9a,10-hexahydro-5aH-benzo[g]quinolin-5-one]",214 to 216
14,"CC(Nc1ccc2c(n1)CC1CCCCC1C2=O)c1ccccc1 (stereo not drawn) [Example 112, 2-(1-Phenyl-ethylamino)-6,7,8,9,9a,10-hexahydro-5aH-benzo[g]quinolin-5-one]",156 to 158
15,"O=C1c2ccc(N3CCN(c4ccccc4)CC3)nc2CC2CCCCC12 (stereo not drawn) [Example 114, 2-(4-Phenyl-piperazin-1-yl)-6,7,8,9,9a,10-hexahydro-5aH-benzo[g]quinolin-5-one]",164 to 166
